For 13 molecules, IC50 results are on record in patent publication US11739098B2 (BRISTOL-MYERS SQUIBB COMPANY, priority 2017, dated 2023).

Each structure is given as a SMILES string.

Type in all cases: cell-based
The target of one assay is T1, human TLR7 (Homo sapiens, UniProt Q9NYK1).
T1 construct: host or cells: HEK-Blue cells (HEK293-derived reporter line)
T1 sequence (Q9NYK1 27-1049): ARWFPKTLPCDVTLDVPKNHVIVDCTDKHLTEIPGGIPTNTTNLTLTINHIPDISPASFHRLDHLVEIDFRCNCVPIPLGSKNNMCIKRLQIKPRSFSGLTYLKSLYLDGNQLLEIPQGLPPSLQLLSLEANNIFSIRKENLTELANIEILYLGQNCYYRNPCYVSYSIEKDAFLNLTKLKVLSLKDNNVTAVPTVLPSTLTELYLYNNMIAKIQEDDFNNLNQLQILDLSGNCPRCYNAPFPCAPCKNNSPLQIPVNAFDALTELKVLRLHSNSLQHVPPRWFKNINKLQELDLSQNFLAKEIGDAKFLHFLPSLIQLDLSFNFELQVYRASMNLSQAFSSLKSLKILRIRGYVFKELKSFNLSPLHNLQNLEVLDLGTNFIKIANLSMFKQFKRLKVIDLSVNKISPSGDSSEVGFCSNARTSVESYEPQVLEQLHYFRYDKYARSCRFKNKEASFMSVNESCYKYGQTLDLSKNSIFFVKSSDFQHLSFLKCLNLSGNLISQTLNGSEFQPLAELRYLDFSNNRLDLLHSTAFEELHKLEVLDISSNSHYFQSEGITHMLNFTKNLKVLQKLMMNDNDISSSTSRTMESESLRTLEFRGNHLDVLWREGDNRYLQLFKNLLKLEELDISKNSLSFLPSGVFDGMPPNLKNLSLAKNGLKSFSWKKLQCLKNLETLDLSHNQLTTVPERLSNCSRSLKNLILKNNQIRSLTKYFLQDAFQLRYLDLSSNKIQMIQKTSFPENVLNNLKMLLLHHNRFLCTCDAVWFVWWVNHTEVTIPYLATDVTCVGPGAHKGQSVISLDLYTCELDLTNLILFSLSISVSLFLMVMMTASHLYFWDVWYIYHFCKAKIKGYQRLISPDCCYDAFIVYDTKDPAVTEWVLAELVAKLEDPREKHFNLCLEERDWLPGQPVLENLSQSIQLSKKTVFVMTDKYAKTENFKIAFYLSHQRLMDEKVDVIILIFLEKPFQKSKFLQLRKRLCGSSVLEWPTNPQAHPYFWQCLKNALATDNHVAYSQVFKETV
The experiment in a line: TLR7 inhibition reporter assay (HEK-Blue cells, SEAP reporter, gardiquimod stimulation). Conditions: HEK-Blue cells overexpressing human TLR7, SEAP reporter, gardiquimod 7.5 μM. Summed up: (§1)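 HEK-Blue cells overexpressing the receptor, with NF-κB/AP-1-driven SEAP, were pre-treated 30 min at room temperature with compound (0.05 nM–50 μM), then stimulated with gardiquimod 7.5 μM (TLR7), R848 15.9 μM (TLR8) or ODN2006 5 nM (TLR9). SEAP was read after 22 h at 37 °C as percent inhibition.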
(In a reporter assay the amount or activity of a reporter protein is the signal.)

Another assay concerns the target T2, human TLR8 (Homo sapiens, UniProt Q9NR97).
T2 construct: host or cells: HEK-Blue cells (HEK293-derived reporter line)
T2 sequence (Q9NR97 27-1041): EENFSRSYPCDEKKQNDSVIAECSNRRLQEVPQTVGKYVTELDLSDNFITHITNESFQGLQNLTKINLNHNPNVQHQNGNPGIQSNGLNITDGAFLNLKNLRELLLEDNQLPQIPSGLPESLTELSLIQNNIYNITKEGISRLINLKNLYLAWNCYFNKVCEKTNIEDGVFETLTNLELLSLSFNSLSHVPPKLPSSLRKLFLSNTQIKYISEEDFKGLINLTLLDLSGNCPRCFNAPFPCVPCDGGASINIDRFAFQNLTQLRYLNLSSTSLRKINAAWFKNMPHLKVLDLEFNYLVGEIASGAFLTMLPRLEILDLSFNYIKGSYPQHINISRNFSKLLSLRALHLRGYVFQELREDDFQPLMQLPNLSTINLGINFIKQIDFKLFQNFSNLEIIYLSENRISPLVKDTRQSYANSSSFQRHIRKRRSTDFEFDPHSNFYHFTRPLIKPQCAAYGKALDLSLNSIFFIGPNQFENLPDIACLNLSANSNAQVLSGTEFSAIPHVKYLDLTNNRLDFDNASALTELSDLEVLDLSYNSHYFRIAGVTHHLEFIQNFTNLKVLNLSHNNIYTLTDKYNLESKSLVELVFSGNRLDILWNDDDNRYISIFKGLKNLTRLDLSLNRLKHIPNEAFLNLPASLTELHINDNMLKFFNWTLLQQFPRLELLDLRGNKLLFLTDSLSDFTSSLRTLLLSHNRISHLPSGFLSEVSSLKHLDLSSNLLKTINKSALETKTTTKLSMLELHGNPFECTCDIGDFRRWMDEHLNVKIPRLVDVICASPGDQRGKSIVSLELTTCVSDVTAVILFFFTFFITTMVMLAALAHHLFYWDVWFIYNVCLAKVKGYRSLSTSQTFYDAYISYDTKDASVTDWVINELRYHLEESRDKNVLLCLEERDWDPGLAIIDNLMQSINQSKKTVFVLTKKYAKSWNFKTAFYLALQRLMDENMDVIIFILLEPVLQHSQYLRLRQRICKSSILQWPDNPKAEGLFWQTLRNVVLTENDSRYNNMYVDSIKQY
In words: TLR8 inhibition reporter assay (HEK-Blue cells, SEAP reporter, R848 stimulation). Conditions: HEK-Blue cells overexpressing human TLR8, SEAP reporter, R848 15.9 μM. The method, boiled down:
as §1

The next assay addresses T3, human TLR9 (Homo sapiens, UniProt Q9NR96).
T3 construct: host or cells: HEK-Blue cells (HEK293-derived reporter line)
T3 sequence (Q9NR96 26-1032): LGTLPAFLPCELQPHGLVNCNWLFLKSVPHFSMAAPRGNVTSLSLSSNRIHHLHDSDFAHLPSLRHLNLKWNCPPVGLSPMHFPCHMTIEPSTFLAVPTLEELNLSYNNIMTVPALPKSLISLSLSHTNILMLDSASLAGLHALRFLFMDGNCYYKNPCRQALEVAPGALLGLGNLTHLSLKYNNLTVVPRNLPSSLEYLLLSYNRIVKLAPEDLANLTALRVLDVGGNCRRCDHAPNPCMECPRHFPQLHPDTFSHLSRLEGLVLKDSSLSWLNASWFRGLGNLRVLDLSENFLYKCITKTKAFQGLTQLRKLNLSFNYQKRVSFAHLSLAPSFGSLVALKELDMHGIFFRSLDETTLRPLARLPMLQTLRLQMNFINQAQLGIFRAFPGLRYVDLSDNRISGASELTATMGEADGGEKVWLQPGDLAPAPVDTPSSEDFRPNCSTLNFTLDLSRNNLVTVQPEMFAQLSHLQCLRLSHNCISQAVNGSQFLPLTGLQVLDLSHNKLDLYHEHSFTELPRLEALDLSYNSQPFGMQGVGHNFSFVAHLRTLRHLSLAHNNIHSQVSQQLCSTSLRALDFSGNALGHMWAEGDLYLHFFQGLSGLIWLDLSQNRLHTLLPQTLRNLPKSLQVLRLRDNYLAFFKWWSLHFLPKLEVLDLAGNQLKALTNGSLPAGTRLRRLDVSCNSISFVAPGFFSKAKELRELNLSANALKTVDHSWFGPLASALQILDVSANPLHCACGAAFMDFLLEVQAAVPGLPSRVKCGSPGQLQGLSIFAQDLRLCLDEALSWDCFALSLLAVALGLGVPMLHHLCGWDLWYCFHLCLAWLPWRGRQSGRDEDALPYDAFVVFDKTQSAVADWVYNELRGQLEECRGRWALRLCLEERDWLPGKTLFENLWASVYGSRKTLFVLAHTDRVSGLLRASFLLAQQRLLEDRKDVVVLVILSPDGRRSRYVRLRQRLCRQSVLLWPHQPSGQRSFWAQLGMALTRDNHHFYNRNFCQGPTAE
In words: TLR9 inhibition reporter assay (HEK-Blue cells, SEAP reporter, ODN2006 stimulation). Conditions: HEK-Blue cells overexpressing human TLR9, SEAP reporter, ODN2006 5 nM. The method, boiled down:
as §1

For `Cc1c(-c2ccnc3[nH]ccc23)[nH]c2ccc(C3CCN(C4CCN(C(C)C)CC4)CC3)cc12` [Example 813, 4-(5-(1′-isopropyl-[1,4′-bipiperidin]-4-yl)-3-methyl-1H-indol-2-yl)-1H-pyrrolo[2,3-b]pyridine], the IC50 at human TLR7, on human TLR8 and at human TLR9 was < 0.1 µM throughout.

As for `Cc1c(-c2ncnc3[nH]ccc23)[nH]c2ccc(C3CCN(C4CCN(C(C)C)CC4)CC3)cc12` [Example 814, 4-(5-(1′-isopropyl-[1,4′-bipiperidin]-4-yl)-3-methyl-1H-indol-2-yl)-7H-pyrrolo[2,3-d]pyrimidine], the half-maximal inhibitory concentration (IC50) against human TLR7 was 0.1 to 1 µM; at human TLR8, < 0.1 µM; at human TLR9 it was < 0.1 µM.

Take `Cc1c(-c2ncnc3[nH]cnc23)[nH]c2ccc(C3CCN(C4CCN(C(C)C)CC4)CC3)cc12` [Example 815, 6-(5-(1′-isopropyl-[1,4′-bipiperidin]-4-yl)-3-methyl-1H-indol-2-yl)-9H-purine]: the IC50 against human TLR7 was 1 to 50 µM; at human TLR8, < 0.1 µM; at human TLR9 it was < 0.1 µM.

`Cc1c(-c2ncnc3[nH]ncc23)[nH]c2ccc(C3CCN(C4CCN(C(C)C)CC4)CC3)cc12` [Example 816, 4-(5-(1′-isopropyl-[1,4′-bipiperidin]-4-yl)-3-methyl-1H-indol-2-yl)-1H-pyrazolo[3,4-d]pyrimidine]: the IC50 at human TLR7 is 0.1 to 1 µM; against human TLR8 it was < 0.1 µM; at human TLR9, < 0.1 µM.

As for `CCc1c(-c2cnc3[nH]ncc3c2)[nH]c2ccc(C3CCN(C4CCN(C(C)C)CC4)CC3)cc12` [Example 819, 5-(3-ethyl-5-(1′-isopropyl-[1,4′-bipiperidin]-4-yl)-1H-indol-2-yl)-1H-pyrazolo[3,4-b]pyridine], the IC50 was 0.1 to 1 µM at human TLR7, < 0.1 µM against human TLR8 and 0.1 to 1 µM against human TLR9.

Regarding `CC1CC(N2CCC(c3ccc4[nH]c(-c5ccnc6[nH]ncc56)c(C(C)C)c4c3)CC2)CCN1` (stereo not drawn) [Example 820, 4-(3-isopropyl-5-(2′-methyl-[1,4′-bipiperidin]-4-yl)-1H-indol-2-yl)-1H-pyrazolo[3,4-b]pyridine], the concentration for half-maximal inhibition (IC50) against human TLR7, against human TLR8 and at human TLR9 was < 0.1 µM each time.

For `CC(C)c1c(-c2ccnc3[nH]ncc23)[nH]c2ccc(C3CCN(C4CCN(C(C)C)CC4)CC3)cc12` [Example 821, 4-(3-isopropyl-5-(1′-isopropyl-[1,4′-bipiperidin]-4-yl)-1H-indol-2-yl)-1H-pyrazolo[3,4-b]pyridine], the IC50 on human TLR7, on human TLR8 and on human TLR9 was < 0.1 µM throughout.

For the molecule `CC(=O)N1CCC(N2CCC(c3ccc4[nH]c(-c5ccnc6[nH]ncc56)c(C(C)C)c4c3)CC2)CC1` [Example 823, 1-(4-(3-isopropyl-2-(1H-pyrazolo[3,4-b]pyridin-4-yl)-1H-indol-5-yl)-[1,4′-bipiperidin]-1′-yl)ethan-1-one], the concentration for half-maximal inhibition (IC50) is < 0.1 µM against human TLR7, < 0.1 µM against human TLR8 and 1 to 50 µM at human TLR9.

For the molecule `CCc1c(-c2ccnc3[nH]ncc23)[nH]c2ccc(C3CCN(C4CCN(C(C)C)CC4)CC3)cc12` [Example 824, 4-(3-ethyl-5-(1′-isopropyl-[1,4′-bipiperidin]-4-yl)-1H-indol-2-yl)-1H-pyrazolo[3,4-b]pyridine], the IC50 against human TLR7, against human TLR8 and against human TLR9 was < 0.1 µM in each case.

In the case of `Cc1cc2[nH]c(-c3ccnc4[nH]ncc34)c(C(C)C)c2cc1C1CCN(C2CCN(C(C)C)CC2)CC1` [Example 826, 4-(3-isopropyl-5-(1′-isopropyl-[1,4′-bipiperidin]-4-yl)-6-methyl-1H-indol-2-yl)-1H-pyrazolo[3,4-b]pyridine], the half-maximal inhibitory concentration (IC50) against human TLR7 is < 0.1 µM; against human TLR8, < 0.1 µM; against human TLR9, 0.1 to 1 µM.

Take `CC(C)c1c(-c2ccnc3[nH]ncc23)[nH]c2ccc(C3CCN(C4CCNCC4F)CC3)cc12` (stereo not drawn) [Example 827, 4-(5-(3′-fluoro-[1,4′-bipiperidin]-4-yl)-3-isopropyl-1H-indol-2-yl)-1H-pyrazolo[3,4-b]pyridine]: the half-inhibitory concentration (IC50) at human TLR7 was < 0.1 µM; at human TLR8, < 0.1 µM; on human TLR9 it was 0.1 to 1 µM.

Take `CC(C)c1c(-c2ccnc3[nH]ncc23)[nH]c2ccc(C3CCN(C4CCCNCC4)CC3)cc12` (stereo not drawn) [Example 828, 4-(5-(1-(azepan-4-yl)piperidin-4-yl)-3-isopropyl-1H-indol-2-yl)-1H-pyrazolo[3,4-b]pyridine]: the results for the IC50 on human TLR7, against human TLR8 and at human TLR9 were 1 to 50 µM, < 0.1 µM and 0.1 to 1 µM, respectively.

`CC(C)c1c(-c2ccnc3[nH]ncc23)[nH]c2ccc(C3CCN(C4C[C@H]5CC[C@@H](C4)N5C)CC3)cc12` (stereo partly drawn) [Example 829, 4-(3-isopropyl-5-(1-((1R,5S)-8-methyl-8-azabicyclo[3.2.1]octan-3-yl)piperidin-4-yl)-1H-indol-2-yl)-1H-pyrazolo[3,4-b]pyridine]: the IC50 on human TLR7 is < 0.1 µM; on human TLR8 it was < 0.1 µM; against human TLR9, 0.1 to 1 µM.

As a reminder, the IC50 is the concentration that gives 50% inhibition. The low end stands for greater potency, the high end for weaker potency.
